The results in this text go back to US8299061B2, “Inhibitors of diacylglycerol acyltransferase” (Eli Lilly and Company, priority 2009, dated 2012).

The subject of test [1] is C57 B16 mice fed a high fat diet. Briefly: Diet-induced obese mouse model. To be noted: twice daily oral gavage, meta-analysis; for Vehicle controlled percent Fat Mass Change, Mean: QNMR; for Vehicle controlled percent Food Intake Change, Mean: cumulative food intake. Format: in vivo. Here is the method:
Diet-induced obese mouse model: To measure effects on body weight and food intake, compounds are tested in C57 B16 mice fed a high fat diet (Research Diets D12492). Fourteen week old mice raised on D12492 are acclimated to the test vivarium for 2 weeks on a 12 hour light/dark cycle. Seven days prior to compound testing, animals are dosed by oral gavage either once or twice daily with a suitable vehicle in order to accustom the mice to handling. On day 6 of vehicle dosing, body composition is measured by quantitative nuclear magnetic resonance (QNMR). On day seven of vehicle dosing, animals are randomized by body weight and sorted into test groups (n=8). Compound dosing, twice daily, commences after 7 days of vehicle dosing. Animals are given compound 30 minutes prior to the dark phase of the dark/light cycle and, if desired, again 5.5 hours into the dark phase. Compound dosing continues for 15 to 22 days during which time food intake and body weight are measured daily. On day 14 of the experiment, body composition is measured for a second time by QNMR. On day 15, terminal bleeds are taken from two animals per test group at 0, 2, 4, and 6 hours after the final dose for measurement of test compound levels in plasma.
The data are analyzed using a meta-analysis. For the percent Body Weight gain (loss) and percent Fat Mass gain (loss), the measure of treatment effect in the meta-analysis is the group mean difference between treatment and control group. For the percent Cumulative Food Intake Change from Control (% CFICFC), the measure of treatment effect is % CFICFC itself. The overall treatment effect is estimated as the weighted average of treatment effect from individual studies, with the weights being the inverse of variance of individual study's treatment effect estimates. The homogeneity Q-test is performed. If the test is significant at 0.10 level, then a mixed-effect model is used to include both inter-study and intra-study variability. The weights are adjusted to the inverse of the sum of inter-study variance and the intra-study variance of treatment effect estimates from individual studies. The inter-study variance is estimated by the Paule-Mandel estimator. (References: Sutton, A. J., Jones, D. R., Abrams, K. R., Sheldon, T. A., and Song, F., Methods for Meta-analysis in Medical Research London, John Wiley, ISBN 0-471-49066-0 (2000). Dersimonian R., and Kacker, R., Random-effects model for meta-analysis of clinical trials: An update, Contemporary Clinical Trials 28 p 105-114 (2007). Compounds are tested substantially by the diet-induced obese mouse model method described herein.
For N-[1-[[(4R)-5,6-dihydro-4H-imidazo[1,2-a][1]benzazepin-4-yl]carbamoyl]cyclopropyl]-4-ethoxy-benzamide (Examples 1, 3, 57), three experiments were performed at doses of 1, 3, 10 and 30 mg/kg (two of the experiments) and 3 and 30 mg/kg (one of the experiments). Because the 3 and 30 mg/kg doses are common to the experiments, these doses are used to compare the results.
For 4-Chloro-N-[1-[[(4R)-5,6-dihydro-4H-imidazo[1,2-a][1]benzazepin-4-yl]carbamoyl]cyclopropyl]benzamide (Examples 2, 21, 58), two experiments were performed at doses of 3, 10, 30 and 60 mg/kg and at 0.3, 1, 3 and 10 mg/kg. For each of the experiments, the doses are given twice per day. Because the 3 and 10 mg/kg doses are common to the experiments, these doses are used to compare the results.

The test system of a further test is Male Sprague-Dawley rats. The test is described as follows: Oil bolus absorption model (plasma triglyceride after olive oil bolus). The format is in vivo, rat. The conditions noted are these: for ED80: dose reducing increase in plasma triglyceride by 80%. Here is the method:
Male Sprague-Dawley rats (280-320 g, n=6 per test group) on regular chow are acclimated to the test vivarium for at least 1 week prior to compound evaluation. Prior to compound testing, rats are fasted for 16 hour. Compounds are administered via oral gavage in a vehicle of 10% ethanol/90% corn oil at a volume of 1 ml/kg. Four hours after compound administration, a 0.5 ml blood sample is collected via the tail vein. Immediately following the 4 hour blood collection, a 3.0 ml bolus of olive oil is administered by oral gavage. A final blood sample is collected from the tail vein 6 hours after compound administration. Plasma is prepared from blood samples by centrifugation and analyzed for both triglyceride content, using a Hitachi 912 clinical chemistry analyzer, and test compound levels. The effective dose that reduces the increase in plasma triglyceride by 50% (ED50) and 80% (ED80) is determined DGAT-1 inhibition is indicative of the ability of the test compound to inhibit the increase in plasma triglyceride that occurs between hours 4 and 6 of the study (between 14 and 16 hours in the modified model) in vehicle treated (control) animals. In a modification of the model, compound is administered 14 hours prior to the first blood sample collection and oil bolus administration. The final blood sample is collected at 16 hours after dosing. In this longer duration version of the model, the 10% ethanol/90% corn oil vehicle is administered, without compound, at 10 hours after compound dosing to be consistent with the shorter duration version of the model. Compounds are tested substantially by the oil bolus absorption rat model method described herein.
For the compound N-[1-[[(4R)-5,6-dihydro-4H-imidazo[1,2-a][1]benzazepin-4-yl]carbamoyl]cyclopropyl]-4-ethoxy-benzamide (Examples 1, 3, 57), the three experiments used doses of 1, 3, 10 and 30 mg/kg. For the compound 4-Chloro-N-[1-[[(4R)-5,6-dihydro-4H-imidazo[1,2-a][1]benzazepin-4-yl]carbamoyl]cyclopropyl]benzamide (Examples 2, 21, 58), experiment 1 used doses of 0.3, 1, 3, 10 and 30 mg/kg, and for experiments 2 and 3, the doses used are 0.1, 0.3, 1, 3 and 10 mg/kg.
The data are analyzed using meta-analysis. The overall ED50 (ED80) is estimated as the weighted average of ED50 (ED80) from individual studies, with the weights being the inverse of variance of ED50 (ED80) estimates. The homogeneity Q-test is performed. If the test is significant at 0.10 level, a mixed-effect model is used to include both inter-study and intra-study variability. The weights are adjusted to the inverse of the sum of inter-study variance and the intra-study variance of ED50 (ED80) from individual studies. The inter-study variance is estimated by the Paule-Mandel estimator. (References: Sutton, A. J., Jones, D. R., Abrams, K. R., Sheldon, T. A., and Song, F., Methods for Meta-analysis in Medical Research London, John Wiley, ISBN 0-471-49066-0 (2000). Dersimonian R., and Kacker, R., Random-effects model for meta-analysis of clinical trials: An update, Contemporary Clinical Trials 28 p 105-114 (2007).

Structures are written as SMILES. Values joined by “and” are separate entries in the source; they are usually repeats but may differ in a detail not shown here. Equal values may be shown once. Read-outs that look alike come from different tables or passages of the source.

For orientation: ED50 means the midpoint of the dose-response relation. Turning to `CCOc1ccc(C(=O)NC2(C(=O)N[C@@H]3CCc4ccccc4-n4ccnc43)CC2)cc1` [Example 1, N-[1-[[(4R)-5,6-dihydro-4H-imidazo[1,2-a][1]benzazepin-4-yl]carbamoyl]cyclopropyl]-4-ethoxy-benzamide], the “Vehicle controlled percent Fat Mass Change, Mean” value in test [1] (3 mg/kg − control) is recorded as −6.69%; in test [1] (30 mg/kg − control) it was −8.24%. Besides, the “Vehicle controlled percent Food Intake Change, Mean” value in test [1] (3 mg/kg − control) is −10.11%; in test [1] (30 mg/kg − control), −11.35%. Besides, the “Vehicle controlled percent Body Weight Change, Mean” value is reported as −4.74% in test [1] (3 mg/kg − control) and −5.31% in test [1] (30 mg/kg − control). Further, the ED50 is 1.71 mg/kg and 12.37 mg/kg and 2.92 mg/kg with Male Sprague-Dawley rats (16 hour oil bolus study, rat, oral gavage, dose reducing increase in plasma triglyceride by 50%, individual experiments); 5.3 mg/kg in the test on Male Sprague-Dawley rats (Rattus norvegicus, 16 h, 16 hour oil bolus study, weighted average of three experiments, read-out: ED50 Mean (meta-analysis)). The ED80 in the test with Male Sprague-Dawley rats (16 hour oil bolus study, rat, oral gavage, individual experiments) is 5.52 mg/kg and 19.61 mg/kg and 7.64 mg/kg. The “ED80 Mean (meta-analysis)” value with Male Sprague-Dawley rats (16 hour oil bolus study, weighted average of three experiments) is reported as 7.34 mg/kg.
With `O=C(NC1(C(=O)N[C@@H]2CCc3ccccc3-n3ccnc32)CC1)c1ccc(Cl)cc1` [Example 2, 4-Chloro-N-[1-[[(4R)-5,6-dihydro-4H-imidazo[1,2-a][1]benzazepin-4-yl]carbamoyl]cyclopropyl]benzamide], in test [1] (3 mg/kg − control), the “Vehicle controlled percent Fat Mass Change, Mean” value is on record as −9.53%; the “Vehicle controlled percent Food Intake Change, Mean” value is listed as −11.31%; the “Vehicle controlled percent Body Weight Change, Mean” value is −4.65%. Moreover, in test [1] (10 mg/kg − control), the “Vehicle controlled percent Fat Mass Change, Mean” value is listed as −8.41%; the “Vehicle controlled percent Food Intake Change, Mean” value was −8.43%; the “Vehicle controlled percent Body Weight Change, Mean” value is listed as −4.54%. Besides, in the test with Male Sprague-Dawley rats (6 hour oil bolus study, rat, oral gavage, dose reducing increase in plasma triglyceride by 50%, individual experiments), the ED50 is 0.26 mg/kg and 0.73 mg/kg and 0.57 mg/kg. Besides, the ED80 in the test on Male Sprague-Dawley rats (6 hour oil bolus study, rat, oral gavage, individual experiments) is 0.45 mg/kg and 2.22 mg/kg. The “ED80 Mean (meta-analysis)” value in the test on Male Sprague-Dawley rats (6 hour oil bolus study, weighted average of experiments) stood at 0.54 mg/kg. In addition, the ED50 with Male Sprague-Dawley rats (Rattus norvegicus, 6 h, 6 hour oil bolus study, weighted average of experiments, read-out: ED50 Mean (meta-analysis)) came to 0.32 mg/kg.
